Source: US20110112155A1, “METHODS FOR TREATING CANCER IN PATIENTS HAVING BREAST CANCER RESISTANCE PROTEIN OVEREXPRESSION” (Bristol-Myers Squibb Company, priority 2008, published 2011)
Read-outs that look alike come from different tables or passages of the source.

Key:
[1] = tested on: H1155 lung tumor xenograft overexpressing TUBB3; test: In vivo efficacy in TUBB3 overexpressing H1155 lung tumor xenograft; design: species or system human; conditions: H1155 xenograft in nude mice, at maximum tolerated dose; activity = LCK>=1
Procedure: (§1) Cancer cell lines overexpressing TUBB3 were evaluated in vivo in mice for sensitivity to ixabepilone, docetaxel and vinorelbine. These include DU4475 and PAT21 breast, as well as H1155 and LX-1 lung cancer lines. BCRP overexpressing HEK-293 cell line was studied in vitro for sensitivity to ixabepilone, paclitaxel and mitoxantrone.
(§2) In vivo efficacy of ixabepilone was evaluated in TUBB3 overexpressing human breast (DU4475 and PAT21) and lung (H1155 and LX-1) tumor xenograft models • Tumor response was determined by measurement of tumors by caliper twice a week • Tumor weights were estimated using the formula
(§3) Tumor weight=(length×width2)/2 • Tumor response endpoint was expressed in terms of log cell kill (LCK) expressed as
(§4) LCK=(T−C)÷(3.32×TVDT) • T−C, the difference in the time (days) required for the treated tumors (T) to reach a predetermined target size compared with those of the control group (C)
(§5) Tumor volume doubling time=TVDT: Median time (days) for control tumors to reach target size−Median time (days) for control tumors to reach half the target size • Activity was defined as achievement of LCK≧1 • MTD—the dose level immediately above which excessive toxicity (i.e., more then one death) occurred • Statistical evaluations were performed using Gehan's generalized Wilcoxon test

[2] = tested on: DU4475 breast tumor xenograft overexpressing TUBB3; test: In vivo efficacy in TUBB3 overexpressing DU4475 breast tumor xenograft; design: species or system human; conditions: DU4475 xenograft in nude mice, at maximum tolerated dose; activity = LCK>=1
Procedure: as §1, §2, §3, §4, §5

[3] = tested on: Pat-21 breast tumor xenograft overexpressing TUBB3; test: In vivo efficacy in TUBB3 overexpressing PAT21 breast tumor xenograft; design: species or system human; conditions: Pat-21 xenograft in nude mice, at maximum tolerated dose; activity = LCK>=1
Procedure: as §1, §2, §3, §4, §5

[4] = tested on: LX-1 lung tumor xenograft overexpressing TUBB3; test: In vivo efficacy in TUBB3 overexpressing LX-1 lung tumor xenograft; design: species or system human; conditions: LX-1 xenograft in nude mice, at maximum tolerated dose; activity = LCK>=1
Procedure: as §1, §2, §3, §4, §5

[5] = tested on: 4 xenografts overexpressing TUBB3 (DU4475, PAT21, H1155, LX-1); test: In vivo efficacy across the 4 human tumor xenografts overexpressing TUBB3; conditions: range across 4 TUBB3 overexpressing xenografts in nude mice, at MTD
Procedure: as §1, §2, §3, §4, §5

[6] = tested on: BCRP overexpressing HEK293/BCRP cell line; test: Cell growth assay in BCRP overexpressing HEK293 cells; assay type: cell-based
Procedure: as §1
(§6) Compounds and reagents. Ixabepilone, docetaxel and mitoxantrone were solubilized in 100% DMSO at 10 mg/ml for in vitro studies.
(§7) Cell culture: HEK and HEK/BCRP cells were maintained in RPMI-1640 (Gibco) supplemented with 10% heat-inactivated fetal bovine serum and 25 mM HEPES at 37° C./5% CO2.
(§8) Cell growth assays. Cell growth assays were conducted in 6-well culture plates. Cells were plated at a density of 4×10^4 cells/well overnight. Compounds were then added (total DMSO content not exceeding 0.1%). Cell growth was determined by the direct counting of cell number, following trypsinization, using a Coulter Channelyzer.

BCRP = test: as above; assay type: cell-based; conditions: human, HEK293 cells overexpressing BCRP (HEK293/BCRP); HEK293/BCRP cells, cell growth by cell counting
Procedure: as §1, §6, §7, §8

[7] = tested on: human lung carcinoma cell line, H441; test: BCRP-overexpression dependent resistance in H441 cells; assay type: cell-based; conditions: FIG. 8
[8] = tested on: paclitaxel-sensitive (A2780, HCT116, LS174T) and paclitaxel-resistant (HCT116/VM46, Pat-7, A2780Tax, Pat-21) human tumor models; test: Preclinical pharmacology studies of antitumor activity in human tumor models; assay type: in vivo
[9] = tested on: BCRP overexpressing cells; test: Detection of BCRP overexpressing cells by Hoescht 33342 dye and flow cytometry; assay type: cell-based; conditions: flow cytometry, FIG. 7
Excerpt: Determination of BCRP Expression by Flow Cytometry.
Cells were acquired using CellQuest Pro on a FACSCalibur (BD) and analyzed using FlowJo software.

[10] = HEK293/BCRP in comparison with the vector-transfected control line

| Compound | Antitumor Efficacy (LCK) [1] [LCK] | Antitumor Efficacy (LCK) [2] [LCK] | Antitumor Efficacy (LCK) [3] [LCK] | Antitumor Efficacy (LCK) [4] [LCK] | antitumor efficacy, range over the 4 xenografts [5] | IC50 (BCRP) [nM] | resistance factor [6, 10] [fold] | further results |
| --- | --- | --- | --- | --- | --- | --- | --- | --- |
| CC(=O)O[C@@]12CO[C@@H]1C[C@H](O)[C@@]1(C)C(=O)[C@H](O)C3=C(C)[C@@H](OC(=O)[C@H](O)[C@@H](NC(=O)OC(C)(C)C)c4ccccc4)C[C@@](O)([C@@H](OC(=O)c4ccccc4)[C@H]21)C3(C)C [Docetaxel, docetaxel] | 0.2 | 0.9 | 0.3 | 0.5 | 0.2-0.9 LCK |  |  |  |
| C/C(=C\c1csc(C)n1)[C@@H]1C[C@@H]2O[C@]2(C)CCC[C@H](C)[C@H](O)[C@@H](C)C(=O)C(C)(C)[C@@H](O)CC(=O)N1 [Ixabepilone, (1S,3S,7S,10R,11S,12S,16R)-7,11-dihydroxy-8,8,10,12,16-pentamethyl-3-[(1E)-1-methyl-2-(2-methyl-4-thiazolyl)ethenyl]-17-oxa-4-azabicyclo[14.1.0]heptadecane-5,9-dione] | 4.2 | 2.6 | 1.6 | 2.6 |  | 4.1 |  | resistance factor [6]: 1.9 fold; ability to overcome BCRP-overexpression dependent resistance to taxanes [7]: increased ability; oral efficacy ([8]; oral administration, comparable to parenteral administration): orally efficacious; antitumor activity ([8]; paclitaxel-sensitive and paclitaxel-resistant human colon, ovarian and breast tumor models): very impressive and broad spectrum of antitumor activity |
| CCC1=C[C@@H]2CN(C1)Cc1c([nH]c3ccccc13)[C@@](C(=O)OC)(c1cc3c(cc1OC)N(C)[C@H]1[C@@](O)(C(=O)OC)[C@H](OC(C)=O)[C@]4(CC)C=CCN5CC[C@]31[C@@H]54)C2 [Vinorelbine, vinorelbine] | 0.1 | 0.2 | 0.3 | 0.1 | 0.1-0.3 LCK |  |  |  |
| COc1ccc2c3c([nH]c2c1)[C@H](C=C(C)C)N1C(=O)[C@@H]2CCCN2C(=O)[C@@H]1C3 [fumitremorgin C] |  |  |  |  |  |  |  | reversal of BCRP-mediated resistance to paclitaxel and mitoxantrone ([6]; HEK293/BCRP cells): reversed; effect on BCRP overexpressing cells detected with Hoescht 33342 dye [9]: abolition of BCRP overexpressing cells |
| O=C1c2c(O)ccc(O)c2C(=O)c2c(NCCNCCO)ccc(NCCNCCO)c21 [mitoxantrone] |  |  |  |  |  | 26.4 | 4.1 |  |
| CC(=O)O[C@H]1C(=O)[C@@]2(C)[C@H]([C@H](OC(=O)c3ccccc3)[C@]3(O)C[C@H](OC(=O)[C@H](O)[C@@H](NC(=O)c4ccccc4)c4ccccc4)C(C)=C1C3(C)C)[C@]1(OC(C)=O)CO[C@@H]1C[C@@H]2O [paclitaxel] |  |  |  |  |  | 8.7 | 9.8 |  |
